Laboratory results from patent US11180461B2, “Triazoles as Kv3 inhibitors” (AUTIFONY THERAPEUTICS LIMITED, priority 2012, dated 2021).

Tests used:
[1] = biological target: T1, human Kv3.1 channels (hKv3.1) (Homo sapiens, UniProt P48547); assay: hKv3.1 recombinant cell assay, IonWorks Quattro planar array electrophysiology; assay type: cell-based; details: comparable = activity for one channel less than 2 fold that for the other
T1 construct: expressed in transfected cells; host or cells: CHO/Gam/E1A-clone22 (CGE22) cells, transduced with BacMam pFBM/human Kv3.1
T1 sequence (P48547 1-511): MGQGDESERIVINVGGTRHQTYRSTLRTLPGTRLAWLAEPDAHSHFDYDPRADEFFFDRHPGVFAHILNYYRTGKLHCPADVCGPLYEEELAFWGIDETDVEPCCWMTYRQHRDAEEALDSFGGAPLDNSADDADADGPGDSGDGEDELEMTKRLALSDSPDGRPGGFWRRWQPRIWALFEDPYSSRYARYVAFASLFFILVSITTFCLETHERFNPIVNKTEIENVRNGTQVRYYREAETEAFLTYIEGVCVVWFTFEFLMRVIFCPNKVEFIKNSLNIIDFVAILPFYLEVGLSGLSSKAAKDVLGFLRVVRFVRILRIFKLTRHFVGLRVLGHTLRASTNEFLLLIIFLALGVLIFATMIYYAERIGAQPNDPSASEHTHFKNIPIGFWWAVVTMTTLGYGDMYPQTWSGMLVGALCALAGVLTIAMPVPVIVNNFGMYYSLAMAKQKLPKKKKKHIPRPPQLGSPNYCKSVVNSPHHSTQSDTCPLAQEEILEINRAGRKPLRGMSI
From the text: The ability of the compounds of the invention to modulate the voltage-gated potassium channel subtypes Kv3.2/3.1 may be determined using the following assay. The assay may also be used to determine the ability of compounds of the invention to modulate the voltage-gated potassium channel Kv3.3. Analogous methods may be used to investigate the ability of the compounds of the invention to modulate other channel subtypes.
To assess compound effects on human Kv3.1 channels (hKv3.1), CHO/Gam/E1A-clone22 alias CGE22 cells were transduced using a hKv3.1 BacMam reagent. This cell line was designed to be an improved CHO-K1-based host for enhanced recombinant protein expression as compared to wild type CHO-K1. The cell line was generated following the transduction of CHO-K1 cells with a BacMam virus expressing the Adenovirus-Gam1 protein and selection with Geneticin-G418, to generate a stable cell line, CHO/Gam-A3. CHO/Gam-A3 cells were transfected with pCDNA3-E1A-Hygro, followed by hygromycin-B selection and FACS sorting to obtain single-cell clones. […]
Experiments were conducted at room temperature using IonWorks Quattro™ planar array electrophysiology technology (Molecular Devices Corp.) with PatchPlate™ PPC. […] Planar electrode hole resistances (Rp) were determined by applying a 10 mV voltage step across each well. […]

[2] = Determination of in vivo pharmacokinetic parameters (blood and brain) in rats, with and without Elacridar; details: rat, oral 1 mg/kg
Protocol: Adult male rats (Charles River, Italy) were dosed with test compound orally at 1 mg/kg (5 ml/kg, in 5% v/v DMSO, 0.5% w/v HPMC in water) and intravenously at 0.5 mg/kg (2 ml/kg, in 5% v/v DMSO 40% w/v PEG400 in saline). After oral administration, blood samples were collected under deep Isofluorane anesthesia from the portal vein and heart of each rat (1 rat per time point). After intravenous administration, serial blood samples were collected from the lateral tail vein of each rat. A further group of rats (n=1 per test compound) received a single intravenous administration of the PgP transport inhibitor, Elacridar (3 mg/kg) shortly before the oral administration of the test compound at 1 mg/kg, as above. Blood and brain samples were collected at a single timepoint of 0.5 h after dose administration for these animals. In all cases, blood samples were collected into potassium EDTA tubes.
Blood and brain samples were assayed for test compound concentration using a method based on protein precipitation with acetonitrile followed by HPLC/MS-MS analysis with an optimized analytical method.
The concentrations of test compound in blood (expressed as ng/ml) and brain (expressed as ng/g) at the different time points following either oral or intravenous dosing were analysed using a non-compartmental pharmacokinetic model using WinNonLin Professional version 4.1. The following parameters were drived:
Intravenous dosing: Maximum concentration over time (Cmax), integrated concentration over time (AUC), clearance (Clb), volume of distribution (Vss) and half-life (t1/2).
Oral dosing: Cmax, time of maximum concentration (Tmax), AUC, bioavailability (F %), fraction absorbed (Fa %), blood to brain ratio (AUC BB), and Fold-change in AUC BB in the presence of Elacridar.

- AUC BB relative to Reference Example 87 and Reference Example 88 of WO2011069951A1 ([2]; AUC BB from blood and brain): at least two fold
- change in AUC BB in the presence of Elacridar ([2]; Elacridar 3 mg/kg i.v., blood and brain at 0.5 h, p-glycoprotein interaction): limited change
SMILES: Cc1ccc(Oc2ccc(-n3c(C)n[nH]c3=O)cn2)c2c1OCC21CC1 [Example 14, 5-methyl-4-{6-[(7-methylspiro[1-benzofuran-3,1′-cyclopropan]-4-yl)oxy]pyridin-3-yl}-2,4-dihydro-3H-1,2,4-triazol-3-one]
- activity between modulation of Kv3.1 and Kv3.2 channels [1]: comparable activity between modulation of Kv3.1 and Kv3.2 channels
